The nature of the test: Ability to inhibit [3H](+)-pentazocine binding to guinea pig brain Sigma receptor type 1.

Several values for one entry are separate records, joined by “and”; a condition that tells them apart may be missing. Identical values can stand only once.

As a reminder, the Ki is a measure of affinity in units of concentration, obtained from inhibition or displacement. Higher therefore signals lower affinity.

`CN1CCC2(c3cccc(O)c3)CC(=O)C(=CC3CC3)C1C2` (stereo not given) [8-[1-Cyclopropyl-meth-(E)-ylidene]-5-(3-hydroxy-phenyl)-2-methyl-2-aza-bicyclo[3.3.1]nonan-7-one] had a Ki of 62.3 nM.

`CN1CCC2(c3cccc(O)c3)CC(=O)C(=Cc3ccc(I)cc3)C1C2` (stereo not given) [5-(3-Hydroxy-phenyl)-8-[1-(4-iodo-phenyl)-meth-(E)-ylidene]-2-methyl-2-aza-bicyclo[3.3.1]nonan-7-one] gave a Ki of 1.71 nM.

`CN1CCC2(c3cccc(O)c3)CC(=O)C(=Cc3ccc4ccccc4c3)C1C2` (stereo not given) [5-(3-Hydroxy-phenyl)-2-methyl-8-[1-naphthalen-2-yl-meth-(E)-ylidene]-2-aza-bicyclo[3.3.1]nonan-7-one] gave a Ki of 16.6 nM.

Turning to `COc1ccc(C=C2C(=O)CC3(c4cccc(O)c4)CCN(C)C2C3)cc1` (stereo not given) [5-(3-Hydroxy-phenyl)-8-[1-(4-methoxy-phenyl)-meth-(E)-ylidene]-2-methyl-2-aza-bicyclo[3.3.1]nonan-7-one], the Ki was 1.9 nM and 7.8 nM.

The compound `CN1CCC2(c3cccc(O)c3)CC(=O)C(=Cc3cccc(I)c3)C1C2` (stereo not given) [5-(3-Hydroxy-phenyl)-8-[1-(3-iodo-phenyl)-meth-(E)-ylidene]-2-methyl-2-aza-bicyclo[3.3.1]nonan-7-one] registered a Ki of 1.62 nM.

Values taken from BindingDB's records for doi:10.1021/jm00024a005 (National Institute of Diabetes and Digestive and Kidney …, 1996).
